Each block holds one compound with its values, some of them ahead of it.
Assays:
[1] = Clearance rates of carprofen-genus enantiomers; conditions: in vivo
From the text: The above-recited ranges of dosage amounts, which are also recited elsewhere herein, are for racemic mixtures of compounds of Formula (I) having a chiral carbon, or for single compounds of Formula (I) where no chiral carbon atom is present. As will be appreciated by the person of ordinary skill in this art, i.e., a practicing veterinarian or a person with an advanced degree and experience in animal health issues, where other than a racemic mixture of compounds of Formula (I) is involved, the chondroprotective therapeutically effective amount will vary. For example, if 85% of the mixture is (S)-enantiomer, that will ordinarily tend to reduce the necessary dosage. […] However, the degree of difference between the activities of the two enantiomers must also take into account other differences, especially differences in pharmacokinetics between the two enantiomers, in determining the proper dosage. […] This, in turn, will have a calculable impact on the amount of active compound to be administered. Ordinarily, such determinations will be made on a case-by-case basis by the artisan, but these are well within the ordinary skill of the art, as is instituting the methods whereby data necessary for the supporting calculations may be obtained.

[2] = in vivo, po
Method: Accordingly, a useful controlled release dosage form of carprofen in accordance with the present invention is one which maintains a carprofen plasma level greater than 2 μg/mL for most of the day after a single oral dose at 2 mg/lb.
Immediate release carprofen dosage forms containing doses of 1.8, 1.6, and 1.4 mg/lb maintain a plasma carprofen concentration above 10 μg/mL for 9.5 hrs, 8.5 hrs, and 7.5 hrs, respectively. Preferred 1.8 mg/lb oral controlled release carprofen dosage forms maintain a plasma carprofen concentration above 10 μg/mL for greater than 9.5 hrs. Likewise, the threshold durations for 1.6 mg/lb and 1.4 mg/lb doses are 8.5 hrs and 7.5 hrs, respectively. The performance characteristics for preferred oral controlled release carprofen dosage forms at doses higher than 2 mg/lb or less than 1.4 mg/lb can be similarly calculated, assuming linear pharmacokinetics. More preferred oral controlled release carprofen dosage forms are those which maintain a plasma carprofen concentration greater than 10 μg/mL for a period of time greater than or equal to that observed when an immediate release carprofen dosage form is dosed at any higher dose. […]

[3] = system: cultured osteoarthritic mammal chondrocytes / cartilage explants; conditions: cited from earlier work
[4] = system: articular cartilage; conditions: cited from earlier work
[5] = system: atrophied mammal articular cartilage; conditions: in vivo; cited from earlier work
[6] = system: cartilage homeostasis in osteoarthritic joints; conditions: compared with control joints; cited from earlier work

Compound: C[C@H](C(=O)O)c1ccc2c(c1)[nH]c1ccc(Cl)cc12 (single isomer, unassigned) [(+)(S) enantiomer]
- clearance rates, (+)(S) versus (−)(R) enantiomer [1]: significant difference in clearance rates

Compound: C[C@@H](C(=O)O)c1ccc2c(c1)[nH]c1ccc(Cl)cc12 (single isomer, unassigned) [(−)(R) enantiomer]
- clearance rates, (+)(S) versus (−)(R) enantiomer [1]: significant difference in clearance rates

- time plasma carprofen levels are maintained above approximately 10 μg/mL [2]: 10.5 h
Compound: CC(C(=O)O)c1ccc2c(c1)[nH]c1ccc(Cl)cc12 (stereo not drawn) [carprofen, 6-chloro-α-methyl-9H-carbazole-2-acetic acid]
- cartilage GAG synthesis ([3]; carprofen concentrations of 1 and 10): selectively stimulating new cartilage GAG synthesis
- cartilage proteoglycan breakdown ([3]; carprofen concentrations of 1 and 10 μL/ml): without any direct effect on cartilage proteoglycan breakdown

Compound: Pentosan polysulfate [PPS]
- articular cartilage damage ([4]; gross and histologic evaluation): significantly decrease articular cartilage damage
- articular cartilage proteoglycan content ([4]; in vivo): maintenance of normal articular cartilage proteoglycan content

Compound: hyaluronic acid [HA]
- effect on atrophied articular cartilage [5]: chondrostabilizing effect

Compound: polysulfated glycosaminoglycan [PSGAG]
- microscopic structural alteration [6]: decreased microscopic structural alteration
- proteinase activity [6]: decreased proteinase activity
- proteoglycan in cartilage [6]: retention of proteoglycan in cartilage

From patent publication US6506785B2, “Treating or preventing the early stages of degeneration of articular cartilage or subchondral bone in mammals using carprofen and derivatives” (Pfizer, Inc., priority 1998, dated 2003)
